Test system: moderate-to-severe post-surgical pain (post-surgical dental pain)
Assay: Randomized, double-blind, single-dose, placebo- and comparator-controlled study of pain relief by administered dose (bolus IV)
Format: in vivo, human
Details: 30 mg single bolus IV dose (comparator)
Experimental: A 336-patient, seven treatment arm, randomized, double-blind, single-dose, and placebo- and comparator-controlled, parallel-group study was conducted. Patients were randomly assigned to receive a single dose of either diclofenac sodium solubilized with hydroxypropyl-beta-cyclodextrin (hereinafter “DIC”), ketorolac tromethamine, or placebo.
Bolus IV injectable 2 ml solutions were prepared by solubilizing diclofenac sodium with hydroxypropyl-beta-cyclodextrin. […]
Pain was assessed by each patient at Baseline (0 hour: Visual Analog Scale (VAS) and categorical pain intensity only), at 5, 15, 30 and 45 minutes, and at 1, 1.5, 2, 3, 4, 5, 6, 7, 8, 10, 12 and 24 hours after administration of study medication and immediately prior to the first dose of rescue medication. At each post-dose time period, levels of pain intensity (categorical and VAS) and pain relief (categorical and VAS) was assessed by each patient. […]
The presence of a dose-response was tested with a step-down testing procedure. Total pain relief (TOTPAR), peak pain relief, pain intensity difference (SPID), summed peak reduction in pain intensity difference (SPRID), and patient global evaluation was analyzed with analysis of variance (ANOVA) with treatment, center, and baseline categorical pain intensity as factors. […] A 95% confidence interval for each estimated median time to event was calculated. […]

## O=C(c1ccccc1)c1ccc2n1CCC2C(=O)O (centres unmarked) [ketorolac, ketorolac tromethamine]
  % Maximum Effect (TOTPAR): 100%
patients, 0-6 hours
  TOTPAR (Sum of Pain Relief VAS 0-100 mm ratings 0-6 hours): 400.3
